Results reported in patent publication US12440568B2 (priority 2010, dated 2025).

Key:
[1] = Company studies of solubility and sustained release
[2] = system: Cell lines of human bladder cancer; test: MTT viability assay, MMC in DTC-2 versus MMC in saline; format: cell-based; conditions: cell lines exposed to MMC
Method: An in-vitro study was performed to evaluate the efficacy of DTCx materials as cytotoxic agents in the urinary bladder. […] Viability was assessed by MTT assay which tests mitochondrial function.
Cell lines of human bladder cancer were grown in RPMI 1640 medium, supplemented with FBS, 100 U/ml penicillin and […] streptomycin. […] After 2 hours of incubation, medium was replaced with fresh medium for all plates.
The plates were tested by taking out the medium and adding fresh medium containing MTT reagent. All other plates were returned to the incubator for incubation of 24, 72, 120 and 144 h. MTT assays were used to assess toxicity at all time points. The proportion of living cells was calculated by comparison to the control vehicle.
A microplate reader (EL 312e: Bio-Tek Instruments, Winooski VT) was used to evaluate the presence of […] as a color development measured by absorbance spectroscopy at 450 nm. Background optical density (OD) was subtracted from the OD readings of all samples. Cell viability was calculated by dividing the mean OD absorbance values of the treated wells by the mean OD absorbance of the control wells. All samples were tested in triplicate.
Reference is now made to FIGS. 3A-3D, which show graphs of cell viability as a function of time for various experiments.

[3] = system: TCC cell cultures and human bladder tumor tissue cultures; conditions: cited from earlier work

Molecule | Solubility and release behaviour in the invented platform [1] | Higher cell kill with 10× longer exposure time or 10× higher concentration [2] | Concentration needed for similar cell kill effect when exposure reduced from 24 hours to two hours [3]
Nc1ccn([C@@H]2O[C@H](CO)[C@@H](O)C2(F)F)c(=O)n1 [Gemcitabin] | solubility and first order sustained release |  | 
CO[C@@]12[C@H](COC(N)=O)C3=C(C(=O)C(C)=C(N)C3=O)N1C[C@@H]1N[C@@H]12 [MMC, Mitomycin C] |  | up to 30 × | ten times higher concentration
O=C(O)Cc1ccccc1Nc1c(Cl)cccc1Cl [voltaren] | solubility and first order sustained release |  | 
Abamectin | solubility and first order sustained release |  | 
COc1cccc2c1C(=O)c1c(O)c3c(c(O)c1C2=O)C[C@@](O)(C(=O)CO)C[C@@H]3O[C@H]1C[C@H](N)[C@H](O)[C@H](C)O1 [Doxorubicin] | solubility and first order sustained release |  | 
